Reference: US20230331690A1, “THC DERIVATIVES, ORAL DOSAGE FORMS COMPRISING SAME, USES THEREOF FOR TREATING DISEASES AND DISORDERS AND SYNTHESIS THEREOF” (BAR-ILAN UNIVERSITY, priority 2020, published 2023)

Key:
[1] = Pharmacokinetics, blood samples (Example 17); details: 0.5 h after i.p. injection of THC or THC-d5, label = analyte
Method: The pharmacokinetics of 9-CD3-(8-D2)-THC compared to natural THC was evaluated using both intraperitoneal i.p. injection and an oral gavage administration for each material. The mice were divided into four groups containing 6 mice (24 mice total). For each group of mice, a blood sample was withdrawn at baseline (t=0), and half-hour intervals (t=0.5, 2 and 5 h) after administration of the drug. Three mice, half of each group, were euthanized with CO2 after 5 h and their organs (brain and liver) were collected. From the second half of each group, another blood sample was withdrawn 24 h after administration, and then these animals were euthanized and the brain and liver were collected for analysis.

[2] = Pharmacokinetics, liver samples (Example 17); type: in vivo, mice; details: label = analyte
[3] = Persistence over time, blood samples (Example 18); type: in vivo, mice; details: label = analyte
Method: (§1) Blood samples from each mouse were collected at each time point for the pharmacokinetics tests. For 6 h after administrating of all tested drugs, and after testing their WRL on the hot plate, half the mice (n=3) of each group were sacrificed, and the liver and brain of each animal were taken for pharmacokinetics tests. From the remaining mice, blood samples were acquired at 12 h after administration for pharmacokinetics tests. At 24 h after drug administration, and after checking the WRL again, second half of each group of mice were sacrificed, and the liver and brain of each animal were taken for pharmacokinetics tests.

[4] = Persistence over time, brain samples postmortem (Example 18); type: in vivo, mice; details: 8 mg/kg administered, died at 6 h; number in brackets = mice with a value
Method: as §1
(§2) All the results of the brain and liver samples, which were taken postmortem 6 h or 24 h after administration (n=3) are summarized in Tables 12-13.

[5] = Persistence over time, liver samples postmortem (Example 18); type: in vivo, mice
Method: as §1, §2

[6] = 5 h after oral gavage administration of THC or THC-d5

For `CCCCCc1cc(O)c2c(c1)OC(C)(C)[C@@H]1CCC(C(=O)O)=C[C@@H]21` [11-COOH-THC, 11-nor-9-carboxy-THC], the “Component in the blood, mouse 1” value [1] was 30.26 ng/mL, the “Component in the blood, mouse 2” value [1] was 22.27 ng/mL and the “Component in the blood, mouse 3” value [1] was 20.76 ng/mL. The “Component in the blood, mouse 4” value [1] was 32.18 ng/mL, the “Component in the blood, mouse 5” value [1] was 25.30 ng/mL and the “Component in the blood, mouse 6” value [1] was 19.81 ng/mL. The “Component in the blood, Average” value ([1]; n=6 (THC-d5 n=5)) was 25.10 ng/mL, the “Component in the liver, mouse 1” value [2, 6] was 38.89 ng/mL and the “Component in the liver, mouse 2” value [2, 6] was 33.82 ng/mL. For the same compound, the “Component in the liver, mouse 3” value [2, 6] was 25.34 ng/mL, the “Component in the liver, Average” value ([2]; 5 h after oral gavage administration of THC or THC-d5, n=3) was 32.68 ng/mL and the “Component in the liver, mouse 3” value ([2]; 24 h after i.p. injection of THC or THC-d5) was 1.49 ng/mL. For the same compound, the “Average results, blood samples” value ([3]; 4 mg/kg administration of THC or THC-d5, Time 0.5 h) was 11.87 ng/mL, the “Average results, blood samples” value ([3]; 4 mg/kg administration, Time 3 h) was 1.39 (4/4) ng/mL and the “Average results, blood samples” value ([3]; 4 mg/kg administration, Time 6 h) was 0.41 (2/2) ng/mL. The “Average results, blood samples” value ([3]; 8 mg/kg administration of THC or THC-d5, Time 0.5 h) was 15.85 ng/mL, the “Average results, blood samples” value ([3]; 8 mg/kg administration, Time 3 h) was 3.44 ng/mL and the “Average results, blood samples” value ([3]; 8 mg/kg administration, Time 6 h) was 3.57 ng/mL. The “Average results, blood samples” value ([3]; 8 mg/kg administration, Time 12 h (3 mice)) was 1.89 ng/mL, the “Average results for 3 mice - brain samples” value [4] was 2.04 (1) ng/g and the “Average results for 3 mice (Table 13, liver)” value ([5]; 2 mg/kg administered, died at 6 h) was 3.83 ng/g. The “Average results for 3 mice (Table 13, liver)” value ([5]; 4 mg/kg administered, died at 6 h) was 46.06 ng/g, the “Average results for 3 mice (Table 13, liver)” value ([5]; 4 mg/kg administered, died at 24 h, number in brackets = mice with a value) was 2.89 (1) ng/g and the “Average results for 3 mice (Table 13, liver)” value ([5]; 8 mg/kg administered, died at 6 h) was 60.95 ng/g.
